Assay results published in paper PMC4177916, “Characterization of the Sterol and Phosphatidylinositol 4-Phosphate Binding Properties of Golgi-Associated OSBP-Related Protein 9 (ORP9)” (PLoS ONE, 2014).
Positions count from the first letter of the chain named. Each block holds one compound with its values, some of them ahead of it.

Assays:
Assay type in all cases: binding
ORP9L [1] = biological target: T1, ORP9L (Homo sapiens, UniProt Q96SU4); assay: inhibition of CTL extraction from liposomes (FRET); conditions: equimolar cholesterol and CTL (2.5 mol% each); pH 7.4, 30 °C
T1 construct: gene OSBPL9; full-length long variant, C-terminal V5-His tag (stated for the HH/AA mutant)
T1 sequence (Q96SU4 2-736): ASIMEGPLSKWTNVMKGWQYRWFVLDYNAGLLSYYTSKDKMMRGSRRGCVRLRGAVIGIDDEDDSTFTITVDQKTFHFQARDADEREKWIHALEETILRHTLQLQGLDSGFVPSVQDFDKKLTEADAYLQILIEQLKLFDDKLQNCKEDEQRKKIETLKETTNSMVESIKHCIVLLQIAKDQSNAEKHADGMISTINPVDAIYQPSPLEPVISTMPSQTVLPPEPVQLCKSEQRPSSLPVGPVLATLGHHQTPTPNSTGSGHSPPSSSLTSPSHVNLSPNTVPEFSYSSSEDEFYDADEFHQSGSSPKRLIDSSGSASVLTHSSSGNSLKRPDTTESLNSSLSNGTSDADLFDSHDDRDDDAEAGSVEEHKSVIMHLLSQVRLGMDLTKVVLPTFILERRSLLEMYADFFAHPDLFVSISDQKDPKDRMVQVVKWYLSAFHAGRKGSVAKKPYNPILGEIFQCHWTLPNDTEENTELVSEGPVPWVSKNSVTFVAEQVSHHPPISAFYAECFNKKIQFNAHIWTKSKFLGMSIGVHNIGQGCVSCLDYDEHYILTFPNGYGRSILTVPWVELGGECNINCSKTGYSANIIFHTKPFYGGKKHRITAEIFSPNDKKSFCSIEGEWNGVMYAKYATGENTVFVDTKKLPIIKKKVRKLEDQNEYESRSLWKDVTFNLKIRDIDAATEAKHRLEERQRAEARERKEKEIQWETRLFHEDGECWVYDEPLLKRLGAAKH

ORP9L [2] = biological target: T2, ORP9L (Homo sapiens, UniProt Q96SU4, H501A/H502A, form not given); assay: […]PI-4P extraction from liposomes, sedimentation; conditions: 100 pmol protein; pH 7.4, 25 °C, 20 min; labelled compound
T2 construct: gene OSBPL9; full-length long variant, C-terminal V5-His tag (stated for the HH/AA mutant)
T2 sequence (Q96SU4 2-736 H501A/H502A): T1 sequence (Q96SU4 2-736) with H500A, H501A

ORP9S = biological target: T3, ORP9S (Homo sapiens, UniProt Q96SU4); assay: as above; conditions: pH 7.4, 25 °C, 20 min; 0.1 mM liposomes with 0.5 mol% PI-4P; labelled compound
T3 construct: gene OSBPL9; short variant lacking N-terminal PH domain, His-tagged
T3 sequence (Q96SU4 100-736 limits assumed): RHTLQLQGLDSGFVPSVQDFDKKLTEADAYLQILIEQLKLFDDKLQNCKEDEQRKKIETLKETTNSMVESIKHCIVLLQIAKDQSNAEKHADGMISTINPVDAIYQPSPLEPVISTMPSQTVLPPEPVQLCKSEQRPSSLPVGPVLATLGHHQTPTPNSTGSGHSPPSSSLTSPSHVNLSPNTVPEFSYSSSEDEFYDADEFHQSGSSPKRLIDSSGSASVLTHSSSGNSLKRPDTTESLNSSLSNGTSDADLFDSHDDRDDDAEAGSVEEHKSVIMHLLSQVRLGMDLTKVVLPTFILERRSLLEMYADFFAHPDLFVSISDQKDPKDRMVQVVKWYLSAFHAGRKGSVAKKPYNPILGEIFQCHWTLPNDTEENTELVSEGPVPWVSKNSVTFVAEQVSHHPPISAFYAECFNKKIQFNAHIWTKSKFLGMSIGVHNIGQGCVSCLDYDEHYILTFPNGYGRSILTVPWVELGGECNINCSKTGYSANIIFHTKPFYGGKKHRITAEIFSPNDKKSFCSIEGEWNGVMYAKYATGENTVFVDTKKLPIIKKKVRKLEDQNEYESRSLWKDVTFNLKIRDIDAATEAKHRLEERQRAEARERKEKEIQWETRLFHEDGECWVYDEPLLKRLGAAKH

ORP9L [3] = biological target: T1, ORP9L; assay: as above; conditions: pH 7.4, 25 °C, 20 min; 0.1 mM liposomes with 0.5 mol% PI-4P; labelled compound
Osh6 = biological target: T4, Osh6 (Saccharomyces cerevisiae, UniProt Q02201); assay: [3H]PS extraction from liposomes, sedimentation; conditions: 100 pmol protein; pH 7.4, 25 °C, 20 min; labelled compound
T4 construct: hexahistidine-SUMO3-tagged, expressed in bacteria
T4 sequence (Q02201 1-448): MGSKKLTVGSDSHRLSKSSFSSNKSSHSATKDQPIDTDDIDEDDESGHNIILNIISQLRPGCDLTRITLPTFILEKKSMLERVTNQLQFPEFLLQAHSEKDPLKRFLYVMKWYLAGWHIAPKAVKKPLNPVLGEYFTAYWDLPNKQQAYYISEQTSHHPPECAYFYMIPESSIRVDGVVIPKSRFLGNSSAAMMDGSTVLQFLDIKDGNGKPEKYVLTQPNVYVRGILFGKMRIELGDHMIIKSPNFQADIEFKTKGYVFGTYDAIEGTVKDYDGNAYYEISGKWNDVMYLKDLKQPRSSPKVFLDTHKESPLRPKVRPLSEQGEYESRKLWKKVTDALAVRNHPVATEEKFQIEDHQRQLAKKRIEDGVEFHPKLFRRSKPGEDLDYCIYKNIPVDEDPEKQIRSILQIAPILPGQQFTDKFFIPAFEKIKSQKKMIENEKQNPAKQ

% inhibition of CTL extraction (ORP9L [1]): 50%
Compound: CC(C)CCC[C@@H](C)[C@H]1CC[C@H]2[C@@H]3CC=C4C[C@@H](O)CC[C@]4(C)[C@H]3CC[C@]12C [cholesterol]

% reduction of extraction versus wild type (ORP9L [2]): > 75% | % extraction (ORP9S): 14% | % maximal extraction (ORP9L [3]): 9%
Compound: PI-4P

% extraction (Osh6): ~ 2%
Compound: phosphatidylserine
